# Reference: PubChem BioAssay (NCI)
#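 Following 48 hours of exposure in 96-well plates, responses at five concentrations were used to interpolate endpoints linearly. TGI marks complete inhibition of growth.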
# Columns and labels:
# Assay in all cases: NCI anticancer screen, dose series, 48 h
# [1] = tested on: 786-0 renal
# [2] = tested on: A549 NSCLC
# [3] = tested on: ACHN renal
# [4] = tested on: BT-549 breast
# [5] = tested on: CCRF-CEM leukemia
# [6] = tested on: COLO 205 colon
# [7] = tested on: DU-145 prostate
# [8] = tested on: EKVX NSCLC
# [9] = tested on: HCC-2998 colon
# [10] = tested on: HCT-116 colon
# [11] = tested on: HCT-15 colon
# [12] = tested on: HL-60(TB) leukemia
# [13] = tested on: HOP-62 NSCLC
# [14] = tested on: HOP-92 NSCLC
# [15] = tested on: HS 578T breast
# [16] = tested on: HT29 colon
# [17] = tested on: IGROV1 ovarian
# [18] = tested on: K-562 leukemia
# [19] = tested on: KM12 colon
# [20] = tested on: M14 melanoma
# [21] = tested on: MALME-3M melanoma
# [22] = tested on: MCF7 breast
# [23] = tested on: MDA-MB-231 breast
# [24] = tested on: MDA-N
# [25] = tested on: MOLT-4 leukemia
# [26] = tested on: NCI-H226 lung
# [27] = tested on: NCI-H23 lung
# [28] = tested on: NCI-H460 lung
# [29] = tested on: NCI-H522 lung
# [30] = tested on: NCI/ADR-RES ovarian
# [31] = tested on: OVCAR-3 ovarian
# [32] = tested on: OVCAR-4 ovarian
# [33] = tested on: OVCAR-5 ovarian
# [34] = tested on: OVCAR-8 ovarian
# [35] = tested on: PC-3 prostate
# [36] = tested on: RPMI-8226 leukemia
# [37] = tested on: RXF 393 renal
# [38] = tested on: SF-268 CNS
# [39] = tested on: SF-295 CNS
# [40] = tested on: SF-539 CNS
# [41] = tested on: SK-MEL-28 melanoma
# [42] = tested on: SK-MEL-5 melanoma
# [43] = tested on: SK-OV-3 ovarian
# [44] = tested on: SN12C renal
# [45] = tested on: SNB-19 CNS
# [46] = tested on: SNB-75 CNS
# [47] = tested on: SR leukemia
# [48] = tested on: SW-620 colon
# [49] = tested on: T-47D breast
# [50] = tested on: TK-10 renal
# [51] = tested on: U251 CNS
# [52] = tested on: UACC-257 melanoma
# [53] = tested on: UACC-62 melanoma
# [54] = tested on: A498 renal
# [55] = tested on: LOX IMVI melanoma
# [56] = tested on: MDA-MB-435
# [57] = tested on: SK-MEL-2 melanoma
# [58] = tested on: UO-31 renal
# [59] = tested on: CAKI-1 renal
structure (smiles),measurement,setting,value
Cc1ccn2c(=O)cc(-c3ccccc3)nc2c1,TGI,[1],> 100 µM
same,TGI,[2],> 100 µM
same,TGI,[3],> 100 µM
same,TGI,[4],> 100 µM
same,TGI,[5],> 100 µM
same,TGI,[6],> 100 µM
same,TGI,[7],> 100 µM
same,TGI,[8],> 100 µM
same,TGI,[9],> 100 µM
same,TGI,[10],> 100 µM
same,TGI,[11],> 100 µM
same,TGI,[12],> 100 µM
same,TGI,[13],> 100 µM
same,TGI,[14],> 100 µM
same,TGI,[15],> 100 µM
same,TGI,[16],> 100 µM
same,TGI,[17],> 100 µM
same,TGI,[18],> 100 µM
same,TGI,[19],> 100 µM
same,TGI,[20],> 100 µM
same,TGI,[21],> 100 µM
same,TGI,[22],> 100 µM
same,TGI,[23],> 100 µM
same,TGI,[24],> 100 µM
same,TGI,[25],> 100 µM
same,TGI,[26],> 100 µM
same,TGI,[27],> 100 µM
same,TGI,[28],> 100 µM
same,TGI,[29],> 100 µM
same,TGI,[30],> 100 µM
same,TGI,[31],> 100 µM
same,TGI,[32],> 100 µM
same,TGI,[33],> 100 µM
same,TGI,[34],> 100 µM
same,TGI,[35],> 100 µM
same,TGI,[36],> 100 µM
same,TGI,[37],> 100 µM
same,TGI,[38],> 100 µM
same,TGI,[39],> 100 µM
same,TGI,[40],> 100 µM
same,TGI,[41],> 100 µM
same,TGI,[42],> 100 µM
same,TGI,[43],> 100 µM
same,TGI,[44],> 100 µM
same,TGI,[45],> 100 µM
same,TGI,[46],> 100 µM
same,TGI,[47],> 100 µM
same,TGI,[48],> 100 µM
same,TGI,[49],> 100 µM
same,TGI,[50],> 100 µM
same,TGI,[51],> 100 µM
same,TGI,[52],> 100 µM
same,TGI,[53],> 100 µM
CCc1ccc2oc(-c3cc(O)c(-c4nc5cc(CC)ccc5o4)cc3O)nc2c1,TGI,[1],> 100 µM
same,TGI,[54],> 100 µM
same,TGI,[2],> 100 µM
same,TGI,[3],> 100 µM
same,TGI,[5],> 100 µM
same,TGI,[6],> 100 µM
same,TGI,[7],> 100 µM
same,TGI,[8],> 100 µM
same,TGI,[9],> 100 µM
same,TGI,[10],> 100 µM
same,TGI,[11],> 100 µM
same,TGI,[12],> 100 µM
same,TGI,[13],> 100 µM
same,TGI,[14],> 100 µM
same,TGI,[15],> 100 µM
same,TGI,[17],> 100 µM
same,TGI,[18],> 100 µM
same,TGI,[55],> 100 µM
same,TGI,[20],> 100 µM
same,TGI,[22],> 100 µM
same,TGI,[23],> 100 µM
same,TGI,[56],> 100 µM
same,TGI,[24],> 100 µM
same,TGI,[25],> 100 µM
same,TGI,[26],> 100 µM
same,TGI,[27],> 100 µM
same,TGI,[28],> 100 µM
same,TGI,[30],> 100 µM
same,TGI,[33],> 100 µM
same,TGI,[34],> 100 µM
same,TGI,[35],> 100 µM
same,TGI,[36],> 100 µM
same,TGI,[38],> 100 µM
same,TGI,[40],> 100 µM
same,TGI,[57],> 100 µM
same,TGI,[41],> 100 µM
same,TGI,[42],> 100 µM
same,TGI,[43],> 100 µM
same,TGI,[44],> 100 µM
same,TGI,[45],> 100 µM
same,TGI,[46],> 100 µM
same,TGI,[47],> 100 µM
same,TGI,[48],> 100 µM
same,TGI,[49],> 100 µM
same,TGI,[50],> 100 µM
same,TGI,[51],> 100 µM
same,TGI,[53],> 100 µM
same,TGI,[58],> 100 µM
CNC(=O)Oc1ccc(-c2cn3cc(OC(=O)NC)ccc3n2)cc1,TGI,[1],> 100 µM
same,TGI,[54],> 100 µM
same,TGI,[2],> 100 µM
same,TGI,[3],> 100 µM
same,TGI,[4],> 100 µM
same,TGI,[59],> 100 µM
same,TGI,[5],52.9 µM
same,TGI,[6],> 100 µM
same,TGI,[7],> 100 µM
same,TGI,[8],> 100 µM
same,TGI,[9],> 100 µM
same,TGI,[10],> 100 µM
same,TGI,[11],> 100 µM
same,TGI,[13],> 100 µM
same,TGI,[14],> 100 µM
same,TGI,[16],> 100 µM
same,TGI,[17],> 100 µM
same,TGI,[18],> 100 µM
same,TGI,[19],> 100 µM
same,TGI,[55],> 100 µM
same,TGI,[20],> 100 µM
same,TGI,[22],> 100 µM
same,TGI,[23],> 100 µM
same,TGI,[56],> 100 µM
same,TGI,[24],> 100 µM
same,TGI,[25],> 100 µM
same,TGI,[26],> 100 µM
same,TGI,[27],> 100 µM
same,TGI,[28],> 100 µM
same,TGI,[30],> 100 µM
same,TGI,[31],> 100 µM
same,TGI,[32],> 100 µM
same,TGI,[33],> 100 µM
same,TGI,[34],> 100 µM
same,TGI,[35],> 100 µM
same,TGI,[36],81.9 µM
same,TGI,[37],> 100 µM
same,TGI,[38],75 µM
same,TGI,[39],> 100 µM
same,TGI,[40],> 100 µM
same,TGI,[57],> 100 µM
same,TGI,[41],> 100 µM
same,TGI,[42],> 100 µM
same,TGI,[43],> 100 µM
same,TGI,[44],> 100 µM
same,TGI,[45],> 100 µM
same,TGI,[46],> 100 µM
same,TGI,[47],> 100 µM
same,TGI,[48],> 100 µM
same,TGI,[49],> 100 µM
same,TGI,[50],> 100 µM
same,TGI,[51],> 100 µM
same,TGI,[52],> 100 µM
same,TGI,[53],> 100 µM
same,TGI,[58],> 100 µM
